This note sets out measurements from ChEMBL document CHEMBL1201862, “PubChem BioAssay data set” (2004).

Calls of active or inactive are those of the source. A value given as a limit tells only on which side of the number the result lay.

In test [1] the test system is BJ. Nature of the test: BJ-TERT fibroblast viability loss – cell-based, RAS-independent, luminescence, dose response (AID 1933). It counts as functional. The settings on record: Homo sapiens.
Test [2] has as its system BJ. Nature of the test: cells. It counts as functional, cell-based. The settings on record: Homo sapiens.
Test [3] has as its system BJ. As to the kind of experiment: BJ-TERT-LT-ST fibroblast viability loss – cell-based, RAS-independent, luminescence, dose response (AID 1935).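 Further: BJ fibroblasts immortalized with TERT plus LT and ST oncogenes.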 To be noted: Homo sapiens. The format is functional.
Test [4] in a line: DRD fibroblast viability loss – cell-based, non-viral oncogenic, luminescence, dose response (AID 1934). It counts as functional. The settings on record: Homo sapiens.
The subject of test [5] is HEK293. Nature of the test: EBV LMP1 TES2 canonical NF-kB signalling blockers – cell-based, HEK293, luciferase, cherry-pick, dose response (AID 588343). The format is functional. The settings on record: Homo sapiens.
The target in test [6] is T1, Replicative DNA helicase DnaB (Mycobacterium tuberculosis, UniProt P9WMR3).
T1 sequence (P9WMR3 whole entry): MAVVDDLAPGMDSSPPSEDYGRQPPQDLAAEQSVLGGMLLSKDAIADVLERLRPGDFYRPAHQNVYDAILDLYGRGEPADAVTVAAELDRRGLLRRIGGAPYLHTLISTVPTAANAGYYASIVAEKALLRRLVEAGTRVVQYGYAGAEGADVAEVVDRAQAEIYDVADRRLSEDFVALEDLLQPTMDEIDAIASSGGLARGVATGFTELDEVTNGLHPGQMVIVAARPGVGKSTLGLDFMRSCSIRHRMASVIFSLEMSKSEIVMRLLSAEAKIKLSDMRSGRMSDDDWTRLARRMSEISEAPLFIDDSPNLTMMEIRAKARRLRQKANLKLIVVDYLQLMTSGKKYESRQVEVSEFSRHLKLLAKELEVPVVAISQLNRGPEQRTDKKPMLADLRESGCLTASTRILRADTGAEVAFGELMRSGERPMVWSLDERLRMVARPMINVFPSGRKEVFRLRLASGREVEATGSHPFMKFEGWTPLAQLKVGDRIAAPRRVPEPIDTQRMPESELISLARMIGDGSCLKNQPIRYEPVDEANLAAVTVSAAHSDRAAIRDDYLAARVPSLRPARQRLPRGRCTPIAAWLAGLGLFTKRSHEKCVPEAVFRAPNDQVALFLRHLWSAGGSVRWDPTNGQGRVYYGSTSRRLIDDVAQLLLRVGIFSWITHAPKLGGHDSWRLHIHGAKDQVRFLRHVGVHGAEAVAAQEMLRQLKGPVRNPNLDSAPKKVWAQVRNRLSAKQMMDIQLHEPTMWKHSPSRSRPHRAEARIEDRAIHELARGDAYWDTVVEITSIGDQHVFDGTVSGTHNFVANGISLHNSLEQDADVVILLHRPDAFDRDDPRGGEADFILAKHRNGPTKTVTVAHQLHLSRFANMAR
As to the kind of experiment: DnaB intein splicing inhibitors, dose response, biochemical, cell-free fluorescence (AID 449749). It counts as functional.

Test [7] relates to BJ. Nature of the test: growth inhibition of engineered Ras-driven BJ cells – cell-based, alamar blue fluorescence, cherrypicked samples, dose response (AID 2631).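 Further: confirmatory dose-response assay in RAS-dependent BJ fibroblasts engineered with TERT, LT and ST, with cytotoxicity read by fluorescence.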 It counts as functional. To be noted: Homo sapiens. A general note: Alamar Blue is a resazurin reagent that responds to reducing activity.
The target of test [8] is T2, Protein RecA (Mycobacterium tuberculosis, UniProt P9WHJ3).
T2 sequence (P9WHJ3 whole entry): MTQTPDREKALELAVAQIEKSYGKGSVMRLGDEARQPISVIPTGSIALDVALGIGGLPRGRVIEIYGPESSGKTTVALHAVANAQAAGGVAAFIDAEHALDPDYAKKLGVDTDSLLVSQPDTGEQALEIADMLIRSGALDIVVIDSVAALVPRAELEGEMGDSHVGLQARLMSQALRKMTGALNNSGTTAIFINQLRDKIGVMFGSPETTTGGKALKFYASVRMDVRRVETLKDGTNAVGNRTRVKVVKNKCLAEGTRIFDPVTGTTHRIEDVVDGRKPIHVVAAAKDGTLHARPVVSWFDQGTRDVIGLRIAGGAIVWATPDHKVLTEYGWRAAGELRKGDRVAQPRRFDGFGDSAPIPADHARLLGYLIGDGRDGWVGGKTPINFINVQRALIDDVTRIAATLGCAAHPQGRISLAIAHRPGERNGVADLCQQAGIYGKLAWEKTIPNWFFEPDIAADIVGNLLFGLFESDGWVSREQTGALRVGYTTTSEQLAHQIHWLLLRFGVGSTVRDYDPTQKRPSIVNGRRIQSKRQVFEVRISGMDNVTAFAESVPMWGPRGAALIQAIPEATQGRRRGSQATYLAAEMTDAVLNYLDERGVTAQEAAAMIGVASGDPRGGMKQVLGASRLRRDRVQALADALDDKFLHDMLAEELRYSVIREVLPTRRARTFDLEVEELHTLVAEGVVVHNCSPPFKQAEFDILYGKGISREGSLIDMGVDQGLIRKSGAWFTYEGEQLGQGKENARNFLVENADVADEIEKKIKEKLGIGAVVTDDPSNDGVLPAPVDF
Nature of the test: Fluorescence Cell-Free Homogeneous Dose Retest to Identify Inhibitors of RecA-Intein Splicing Activity. [Related pubchem assays (depositor defined):AID2097, AID2223, AID489010, AID492950]. It counts as functional.

Test [9] relates to INS1. Nature of the test: INS-1E survival protection against cytokine death – cell-based, luminescence, retest, dose response (AID 449756).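 Further: cell death triggered by IL-1 beta plus TNF-alpha plus IFN-gamma mixture; protective hits raise ATP signal compared with cytokine alone wells.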 It counts as functional. The settings on record: Rattus norvegicus.
Test [10] has as its target Galanin receptor type 3 (Homo sapiens, UniProt O60755). As to the kind of experiment: Fluorescence-based cell-based primary high throughput dose response assay to identify antagonists of the Galanin Receptor 3 (GalR3). The format is functional.
Test [11] can be described thus: cells. It counts as functional, cell-based. To be noted: HEK-CNG.
Test [12] addresses Paired box protein Pax-8 (Homo sapiens, UniProt Q06710). As to the kind of experiment: PAX8 transcriptional activity inhibition in RMG-I – RMG-I cells, luciferase, cherry-pick, dose response (AID 687027).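 Further: luciferase reporter driven by Pax8 target thyroperoxidase promoter measured by SteadyGlo luminescence.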 The format is functional, cell-based.
The nature of test [13]: NIH-3T3 fibroblast cytotoxicity, dose response, cytotoxicity control, cell-based, fluorescence, Alamar Blue, secondary assay (AID 2327).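 Further: NIH-3T3 mouse fibroblasts cultured with fluconazole at 8 µg/mL.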 It counts as functional.
The target of test [14] is T3, Delta-type opioid receptor (Homo sapiens, UniProt P41143). As to the kind of experiment: HTS Image-Based Screen for Antagonists of the DOR Receptor. [Related pubchem assays (depositor defined):AID1777, AID1785, AID1786, AID2133]. It counts as functional.
Test [15] deals with Mu-type opioid receptor (Homo sapiens, UniProt P35372). As to the kind of experiment: HTS Image-Based Screen for Agonists of the MOR Receptor. [Related pubchem assays (depositor defined):AID1777, AID1785, AID1786, AID2133]. The format is functional.
Test [16] concerns the target T3, Delta-type opioid receptor. As to the kind of experiment: HTS Image-Based Screen for Agonists of the DOR Receptor. [Related pubchem assays (depositor defined):AID1777, AID1786, AID2133]. The format is functional.
The subject of test [17] is HeLa. As to the kind of experiment: Cytotoxicity counterscreen assay for transcriptional activators of heat shock protein 70 (Hsp70). [Related pubchem assays: 1203, 1252 ]. To be noted: Homo sapiens. It counts as functional.
Test [18] in a line: fluconazole-exposed Candida albicans growth modulators – fluorescence, retest, confirmation (AID 2467). It counts as functional, cell-based.
Test [19] deals with G-protein coupled receptor 55 (Homo sapiens, UniProt Q9Y2T6). Nature of the test: inhibition of LPI-stimulated GPR55 beta-arrestin translocation – imaging, U2OS, beta-arrestin-GFP, LPI agonist, primary screen (AID 2013).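 Further: antagonist potency measured as reduced agonist-driven arrestin aggregation.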 It counts as functional.
Test [20] has as its target T4, Kappa-type opioid receptor (Homo sapiens, UniProt P41145). It counts as functional.
The target in test [21] is Beta-galactosidase (Escherichia coli, UniProt Q8VNN2). The format is functional.
The target in test [22] is T4, Kappa-type opioid receptor. It counts as functional. The source holds these as a separate data set.
Test [23] has as its system CHO. As to the kind of experiment: CHO cell viability loss, potency – luminescence, cytotoxicity control for TLR9-MyD88 binding inhibitor project, dose response (AID 588339).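 Further: CHO cells stably coexpressing TLR9 and MyD88 fusions from primary screen; compound exposure lasted 48 hours before viability readout.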 To be noted: Cricetulus griseus. It counts as functional, cell-based, hamster.
The target of test [24] is Beta Lactamase (Pseudomonas aeruginosa, UniProt Q932Y6). As to the kind of experiment: BLA reporter interference, concentration series – BLA reporter cells, FRET fluorescence, artefact control for TLR9-MyD88 binding inhibitor project, dose response (AID 588341).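 Further: cell based assay in CHO-K1 cells stably expressing beta-lactamase.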 It counts as cell-based.
For test [25], the system named is Candida albicans. Nature of the test: resistant Candida growth with fluconazole co-treatment – CaCi-8 strain, Alamar Blue, dry powder, set 3, dose response (AID 488905). The format is functional, organism-based.
The subject of test [26] is Candida albicans. As to the kind of experiment: Candida growth inhibition combined with fluconazole – CaCi-2 strain, Alamar Blue, dry powder, set 3, dose response (AID 488907). The format is functional, organism-based.
For test [27], the target named is T5, Endoribonuclease toxin MazF (Escherichia coli K-12, UniProt P0AE70).
T5 sequence (P0AE70 whole entry): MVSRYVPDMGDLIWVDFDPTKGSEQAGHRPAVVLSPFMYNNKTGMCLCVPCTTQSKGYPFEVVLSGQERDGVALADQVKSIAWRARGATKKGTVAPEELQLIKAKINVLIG
Nature of the test: MazEF toxin-antitoxin RNase activation – biochemical, fluorescence, single-stranded RNA substrate, SAR follow-up (AID 588603). The format is functional.

The target of test [28] is T5, Endoribonuclease toxin MazF. As to the kind of experiment: activation of MazEF endoribonuclease cleavage – biochemical, fluorescence, single-stranded RNA substrate, uHTS hits, dose response (AID 588481). The format is functional.
The subject of test [29] is MEF. As to the kind of experiment: SAR analysis of small molecule cytotoxicity of MazEF TA System activators in embryonic fibroblast (MEF) cells. [Related pubchem assays (depositor defined):AID504720, AID504743]. The format is functional. To be noted: Mus musculus.
The target in test [30] is T5, Endoribonuclease toxin MazF. As to the kind of experiment: SAR analysis of small molecule activators of the MazEF TA System via a fluorescence-based single-stranded RNase assay counterscreen. [Related pubchem assays (depositor defined):AID504720, AID504743]. The format is functional.
Test [31] has the same target. Nature of the test: substrate-only fluorescence increase artefacts – biochemical, single-stranded RNase substrate, counter-screen for MazEF activator project, dose response (AID 588502). It counts as functional. For orientation: A counterscreen serves to expose hits that act by an unwanted route or on another target.

T4 sequence (P41145 whole entry): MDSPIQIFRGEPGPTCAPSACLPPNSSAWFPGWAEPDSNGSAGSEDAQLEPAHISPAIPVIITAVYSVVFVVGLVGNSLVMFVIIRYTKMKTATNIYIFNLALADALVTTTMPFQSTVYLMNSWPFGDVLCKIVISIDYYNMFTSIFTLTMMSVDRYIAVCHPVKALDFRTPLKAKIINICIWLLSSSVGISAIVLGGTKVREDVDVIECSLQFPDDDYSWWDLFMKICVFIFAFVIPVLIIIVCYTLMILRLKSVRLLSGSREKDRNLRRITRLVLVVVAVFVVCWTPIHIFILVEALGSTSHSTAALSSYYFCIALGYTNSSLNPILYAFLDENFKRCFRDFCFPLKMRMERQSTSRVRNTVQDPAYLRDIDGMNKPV
T3 sequence (P41143 whole entry): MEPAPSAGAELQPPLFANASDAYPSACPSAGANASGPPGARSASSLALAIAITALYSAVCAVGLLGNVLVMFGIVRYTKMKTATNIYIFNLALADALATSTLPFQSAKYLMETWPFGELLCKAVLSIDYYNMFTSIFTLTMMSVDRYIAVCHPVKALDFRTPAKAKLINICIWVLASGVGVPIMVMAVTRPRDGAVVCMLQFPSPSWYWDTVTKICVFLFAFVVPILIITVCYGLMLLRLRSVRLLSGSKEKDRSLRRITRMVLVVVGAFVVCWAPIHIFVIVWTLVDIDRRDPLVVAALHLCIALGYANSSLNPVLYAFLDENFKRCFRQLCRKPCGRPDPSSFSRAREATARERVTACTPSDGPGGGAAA
Beta Lactamase, sequence (Q932Y6 whole entry): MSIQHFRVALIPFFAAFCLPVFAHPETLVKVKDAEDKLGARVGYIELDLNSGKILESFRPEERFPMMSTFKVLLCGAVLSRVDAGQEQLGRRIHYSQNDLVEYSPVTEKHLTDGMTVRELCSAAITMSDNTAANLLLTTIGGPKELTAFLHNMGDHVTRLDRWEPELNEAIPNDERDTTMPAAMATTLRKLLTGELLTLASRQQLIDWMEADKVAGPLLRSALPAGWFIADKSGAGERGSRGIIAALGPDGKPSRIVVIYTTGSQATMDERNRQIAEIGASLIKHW
Paired box protein Pax-8, sequence (Q06710 whole entry): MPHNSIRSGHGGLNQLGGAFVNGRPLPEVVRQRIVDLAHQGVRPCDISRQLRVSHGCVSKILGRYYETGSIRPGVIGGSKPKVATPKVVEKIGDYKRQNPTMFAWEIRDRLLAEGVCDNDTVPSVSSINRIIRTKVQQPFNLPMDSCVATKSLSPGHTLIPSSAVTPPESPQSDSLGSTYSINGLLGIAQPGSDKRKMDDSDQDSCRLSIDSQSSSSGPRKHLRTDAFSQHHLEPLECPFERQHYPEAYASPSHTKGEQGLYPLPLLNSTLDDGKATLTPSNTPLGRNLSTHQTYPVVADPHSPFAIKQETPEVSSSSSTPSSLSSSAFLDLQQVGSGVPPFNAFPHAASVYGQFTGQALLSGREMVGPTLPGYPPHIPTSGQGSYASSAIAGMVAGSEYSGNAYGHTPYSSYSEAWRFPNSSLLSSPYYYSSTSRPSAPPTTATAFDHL
Galanin receptor type 3, sequence (O60755 whole entry): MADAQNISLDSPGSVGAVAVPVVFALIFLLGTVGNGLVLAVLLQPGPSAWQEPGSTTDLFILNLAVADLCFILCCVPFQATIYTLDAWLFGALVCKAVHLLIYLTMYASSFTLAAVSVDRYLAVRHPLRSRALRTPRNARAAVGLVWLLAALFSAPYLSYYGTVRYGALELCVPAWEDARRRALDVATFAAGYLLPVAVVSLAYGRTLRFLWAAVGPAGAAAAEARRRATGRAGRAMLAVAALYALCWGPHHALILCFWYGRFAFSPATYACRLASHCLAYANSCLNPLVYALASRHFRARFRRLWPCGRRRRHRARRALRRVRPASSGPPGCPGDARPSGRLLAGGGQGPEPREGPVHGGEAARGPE
Beta-galactosidase, sequence (Q8VNN2 whole entry): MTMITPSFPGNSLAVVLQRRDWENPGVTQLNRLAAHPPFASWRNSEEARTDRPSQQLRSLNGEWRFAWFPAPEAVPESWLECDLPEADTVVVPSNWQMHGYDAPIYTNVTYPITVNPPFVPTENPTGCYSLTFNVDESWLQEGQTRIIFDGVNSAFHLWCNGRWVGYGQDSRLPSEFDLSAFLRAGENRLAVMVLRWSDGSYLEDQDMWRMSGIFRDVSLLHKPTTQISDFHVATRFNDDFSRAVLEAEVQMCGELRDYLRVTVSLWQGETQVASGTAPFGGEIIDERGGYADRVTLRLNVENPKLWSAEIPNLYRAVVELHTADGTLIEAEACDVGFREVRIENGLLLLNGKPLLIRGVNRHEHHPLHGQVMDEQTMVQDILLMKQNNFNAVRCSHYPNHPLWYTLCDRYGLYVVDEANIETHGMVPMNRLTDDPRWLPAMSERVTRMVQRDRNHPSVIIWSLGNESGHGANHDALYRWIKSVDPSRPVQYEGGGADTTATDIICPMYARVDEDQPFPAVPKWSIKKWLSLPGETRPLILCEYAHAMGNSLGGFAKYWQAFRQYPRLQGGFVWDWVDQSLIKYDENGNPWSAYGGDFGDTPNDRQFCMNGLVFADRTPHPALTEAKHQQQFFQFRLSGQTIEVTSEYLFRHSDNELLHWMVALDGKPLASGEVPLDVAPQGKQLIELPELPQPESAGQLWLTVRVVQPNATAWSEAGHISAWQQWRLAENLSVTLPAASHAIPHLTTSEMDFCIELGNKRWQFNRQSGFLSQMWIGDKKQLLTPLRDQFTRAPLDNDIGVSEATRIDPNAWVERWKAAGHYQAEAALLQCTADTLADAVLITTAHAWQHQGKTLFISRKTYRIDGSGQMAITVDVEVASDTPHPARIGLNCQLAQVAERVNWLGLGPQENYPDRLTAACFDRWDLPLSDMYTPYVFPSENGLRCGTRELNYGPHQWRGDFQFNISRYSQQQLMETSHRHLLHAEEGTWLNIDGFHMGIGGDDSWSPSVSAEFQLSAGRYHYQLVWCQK
Mu-type opioid receptor, sequence (P35372 whole entry): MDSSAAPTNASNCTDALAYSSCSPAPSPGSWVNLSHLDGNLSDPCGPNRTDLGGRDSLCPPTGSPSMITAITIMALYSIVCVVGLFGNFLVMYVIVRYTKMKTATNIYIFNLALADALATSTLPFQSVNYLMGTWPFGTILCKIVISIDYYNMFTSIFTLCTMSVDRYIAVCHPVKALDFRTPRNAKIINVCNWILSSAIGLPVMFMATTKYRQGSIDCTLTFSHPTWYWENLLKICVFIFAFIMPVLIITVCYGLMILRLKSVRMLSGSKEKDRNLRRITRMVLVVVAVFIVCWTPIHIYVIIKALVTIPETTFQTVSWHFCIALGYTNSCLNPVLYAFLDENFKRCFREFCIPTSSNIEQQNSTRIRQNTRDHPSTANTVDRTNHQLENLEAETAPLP
G-protein coupled receptor 55, sequence (Q9Y2T6 whole entry): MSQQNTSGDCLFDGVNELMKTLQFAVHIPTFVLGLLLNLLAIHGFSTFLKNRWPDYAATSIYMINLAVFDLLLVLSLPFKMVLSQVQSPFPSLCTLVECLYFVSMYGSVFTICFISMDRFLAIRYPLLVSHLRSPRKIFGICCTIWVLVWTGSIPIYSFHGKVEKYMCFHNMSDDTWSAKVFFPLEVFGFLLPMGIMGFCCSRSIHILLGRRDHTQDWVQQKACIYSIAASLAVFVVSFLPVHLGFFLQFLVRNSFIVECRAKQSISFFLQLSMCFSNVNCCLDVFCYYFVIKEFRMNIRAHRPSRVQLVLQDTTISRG

In the case of `N#CC(C#N)=NNc1ccc(-n2ccc(C(F)(F)F)n2)cc1`, the EC50 in test [1] was 13.6 µM (inconclusive); in test [2], 11.4 µM (active); in [3], > 150 µM (not active); in test [4] it was 18.2 µM (inconclusive); in test [7] it was > 133 µM (inactive); in test [8] it was 2.98 µM (active). The EC50 in [11] is > 29.9 µM (inactive). Further, the half-maximal activity concentration (AC50) in [5] is 3.38 µM (active); in test [6], 2.03 µM (active); in test [9], 5.57 µM (active); in test [12] it was 3.44 µM (active). The IC50 in test [10] was > 1.11 µM (active).
Turning to `CNc1cc(Cl)c2nonc2c1[N+](=O)[O-]`, the half-maximal effective concentration (EC50) in test [13] is 4.78 µM (inconclusive); in test [15], > 32 µM (inactive); in [16], > 32 µM (inactive); in [18] it was 0.752 µM (active); in [21] it was > 31.5 µM (inactive); in test [8], 1.77 µM (active). Besides, the IC50 was 10.4 µM (inactive) in test [14]; 1.11 µM (active) in test [19]; 2.96 µM (active) in test [20]; 8.48 µM in test [22]; 1.68 µM (active) in test [23]; 4.73 µM (active) in test [24]. The CC50 in [17] was > 1.22 µM (active). For the same molecule, the AC50 in test [6] was 5.31 µM (active).
On to `O=C(c1ccc(Cl)cc1)N1CCN(c2nc3ccccc3s2)CC1`, for which the AC50 in test [25] is 0.565 µM (active); in test [26], 1.41 µM (active).
Take `CN1C(=O)C(C)(C)c2cc(S(=O)(=O)NCc3ccc(C(=O)NCc4ccco4)cc3)ccc21`: the concentration for a half-maximal effect (EC50) in [27] was 3.35 µM (active); in test [28], 7.01 µM (active); in test [30], > 99 µM (inactive); in [31] it was 29.2 µM (inactive). Further, the CC50 in test [29] is > 99 µM (inactive).

As usually defined, the EC50 is the concentration giving half of the maximal effect. In general, AC50 refers to the midpoint of the concentration-response curve, whichever way the signal moves. By IC50 is commonly meant the concentration that gives 50% inhibition. A word on the CC50: it is the concentration that lowers cell viability or growth by half.
